Test results published in US11566022B2, “3-(5-methoxy-1-oxoisoindolin-2-yl)piperidine-2,6-dione derivatives and uses thereof” (NOVARTIS AG, priority 2019, dated 2023).
Values belong to the compound of their own block, whether it stands above or below them.

Target: HiBit-WIZ fusion protein (Homo sapiens, UniProt O95785+Q96SW2)
Assay: Quantification of WIZ protein levels in HiBit tag fusion protein assay (WIZ HiBit assay in 293T cells)
Assay type: cell-based
Set-up: Dmax: dose or concentration left out as unconfirmed
Details: for Dmax / remaining activity at up to 25 µM: HEK-293T; for Dmax / % degradation of WIZ (100-Amax): 100 minus Amax; for Dmax / remaining activity at up to 25 µM / % degradation of WIZ (100-Amax) / WIZ Amax: 293T cells; for Dmax: read-out: % degradation of WIZ (100-Amax); for remaining activity at up to 25 µM / WIZ Amax: DMSO-normalized, curve-fitted percentage of WIZ-HiBit remaining at 25 uM; for remaining activity at up to 25 µM: read-out: WIZ Amax; for DC50: WIZ HiBit assay in 293T cells, 10-point, 5-fold dose response, highest concentration 25 μM, about 18 hours, read-out: WIZ AC50; for % degradation of WIZ (100-Amax): at 25 uM

Sequence of HiBit-WIZ fusion protein (O95785 whole entry, the tested form may be a part): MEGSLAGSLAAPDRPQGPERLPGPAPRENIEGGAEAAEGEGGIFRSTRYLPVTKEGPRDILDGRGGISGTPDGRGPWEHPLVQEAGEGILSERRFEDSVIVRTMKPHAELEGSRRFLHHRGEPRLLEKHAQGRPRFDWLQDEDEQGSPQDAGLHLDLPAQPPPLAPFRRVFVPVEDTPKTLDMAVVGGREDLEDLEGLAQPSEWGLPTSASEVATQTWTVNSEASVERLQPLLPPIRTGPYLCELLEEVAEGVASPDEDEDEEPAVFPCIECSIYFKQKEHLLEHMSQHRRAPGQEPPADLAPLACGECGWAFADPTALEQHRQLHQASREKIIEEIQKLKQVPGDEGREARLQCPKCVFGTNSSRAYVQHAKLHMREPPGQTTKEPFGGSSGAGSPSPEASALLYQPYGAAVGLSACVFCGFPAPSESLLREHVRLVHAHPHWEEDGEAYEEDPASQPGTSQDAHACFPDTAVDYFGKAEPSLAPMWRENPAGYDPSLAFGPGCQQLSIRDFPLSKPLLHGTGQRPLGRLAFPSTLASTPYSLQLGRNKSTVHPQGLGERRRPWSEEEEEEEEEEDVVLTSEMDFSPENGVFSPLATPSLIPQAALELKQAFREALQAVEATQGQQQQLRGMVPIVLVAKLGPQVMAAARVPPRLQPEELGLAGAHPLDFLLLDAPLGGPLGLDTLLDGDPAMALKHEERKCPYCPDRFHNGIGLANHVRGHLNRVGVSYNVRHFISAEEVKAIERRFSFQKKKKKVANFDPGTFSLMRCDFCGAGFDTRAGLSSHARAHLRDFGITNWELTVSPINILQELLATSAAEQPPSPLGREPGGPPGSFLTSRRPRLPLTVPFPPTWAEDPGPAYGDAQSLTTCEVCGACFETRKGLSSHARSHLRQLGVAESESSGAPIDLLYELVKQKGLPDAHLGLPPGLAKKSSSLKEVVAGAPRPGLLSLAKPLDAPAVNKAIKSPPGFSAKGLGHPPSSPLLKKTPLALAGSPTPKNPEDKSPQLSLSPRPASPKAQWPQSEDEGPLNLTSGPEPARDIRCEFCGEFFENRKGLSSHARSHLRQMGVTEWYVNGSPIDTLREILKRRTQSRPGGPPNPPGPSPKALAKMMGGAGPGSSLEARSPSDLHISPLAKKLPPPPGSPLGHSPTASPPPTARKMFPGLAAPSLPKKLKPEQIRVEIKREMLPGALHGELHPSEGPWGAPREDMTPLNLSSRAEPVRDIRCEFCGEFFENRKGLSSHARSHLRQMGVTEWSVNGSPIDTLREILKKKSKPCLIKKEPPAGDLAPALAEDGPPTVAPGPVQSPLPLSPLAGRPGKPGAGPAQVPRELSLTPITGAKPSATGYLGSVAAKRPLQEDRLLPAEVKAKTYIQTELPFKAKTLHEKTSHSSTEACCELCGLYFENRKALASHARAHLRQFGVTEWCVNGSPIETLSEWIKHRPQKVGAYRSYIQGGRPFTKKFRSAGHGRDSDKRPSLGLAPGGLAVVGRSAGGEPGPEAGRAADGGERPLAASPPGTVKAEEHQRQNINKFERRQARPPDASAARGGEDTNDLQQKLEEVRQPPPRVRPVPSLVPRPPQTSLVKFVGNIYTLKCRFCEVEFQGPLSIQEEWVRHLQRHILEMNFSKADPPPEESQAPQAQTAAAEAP
Sequence of HiBit-WIZ fusion protein (Q96SW2 whole entry, the tested form may be a part): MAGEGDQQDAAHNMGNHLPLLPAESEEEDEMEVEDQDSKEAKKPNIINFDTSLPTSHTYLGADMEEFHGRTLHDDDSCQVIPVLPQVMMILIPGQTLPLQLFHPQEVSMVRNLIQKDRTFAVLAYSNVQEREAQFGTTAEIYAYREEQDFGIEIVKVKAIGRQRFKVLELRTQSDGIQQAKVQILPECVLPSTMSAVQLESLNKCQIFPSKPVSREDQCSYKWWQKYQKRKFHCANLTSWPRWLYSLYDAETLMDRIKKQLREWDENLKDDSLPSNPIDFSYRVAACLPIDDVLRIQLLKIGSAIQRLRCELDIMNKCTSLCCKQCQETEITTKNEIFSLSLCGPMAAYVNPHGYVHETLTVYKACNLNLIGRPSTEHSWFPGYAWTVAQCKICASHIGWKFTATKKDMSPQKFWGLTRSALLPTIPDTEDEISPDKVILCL
Sequence of HiBit-WIZ fusion protein (Q16531 whole entry partner, the tested form may be a part): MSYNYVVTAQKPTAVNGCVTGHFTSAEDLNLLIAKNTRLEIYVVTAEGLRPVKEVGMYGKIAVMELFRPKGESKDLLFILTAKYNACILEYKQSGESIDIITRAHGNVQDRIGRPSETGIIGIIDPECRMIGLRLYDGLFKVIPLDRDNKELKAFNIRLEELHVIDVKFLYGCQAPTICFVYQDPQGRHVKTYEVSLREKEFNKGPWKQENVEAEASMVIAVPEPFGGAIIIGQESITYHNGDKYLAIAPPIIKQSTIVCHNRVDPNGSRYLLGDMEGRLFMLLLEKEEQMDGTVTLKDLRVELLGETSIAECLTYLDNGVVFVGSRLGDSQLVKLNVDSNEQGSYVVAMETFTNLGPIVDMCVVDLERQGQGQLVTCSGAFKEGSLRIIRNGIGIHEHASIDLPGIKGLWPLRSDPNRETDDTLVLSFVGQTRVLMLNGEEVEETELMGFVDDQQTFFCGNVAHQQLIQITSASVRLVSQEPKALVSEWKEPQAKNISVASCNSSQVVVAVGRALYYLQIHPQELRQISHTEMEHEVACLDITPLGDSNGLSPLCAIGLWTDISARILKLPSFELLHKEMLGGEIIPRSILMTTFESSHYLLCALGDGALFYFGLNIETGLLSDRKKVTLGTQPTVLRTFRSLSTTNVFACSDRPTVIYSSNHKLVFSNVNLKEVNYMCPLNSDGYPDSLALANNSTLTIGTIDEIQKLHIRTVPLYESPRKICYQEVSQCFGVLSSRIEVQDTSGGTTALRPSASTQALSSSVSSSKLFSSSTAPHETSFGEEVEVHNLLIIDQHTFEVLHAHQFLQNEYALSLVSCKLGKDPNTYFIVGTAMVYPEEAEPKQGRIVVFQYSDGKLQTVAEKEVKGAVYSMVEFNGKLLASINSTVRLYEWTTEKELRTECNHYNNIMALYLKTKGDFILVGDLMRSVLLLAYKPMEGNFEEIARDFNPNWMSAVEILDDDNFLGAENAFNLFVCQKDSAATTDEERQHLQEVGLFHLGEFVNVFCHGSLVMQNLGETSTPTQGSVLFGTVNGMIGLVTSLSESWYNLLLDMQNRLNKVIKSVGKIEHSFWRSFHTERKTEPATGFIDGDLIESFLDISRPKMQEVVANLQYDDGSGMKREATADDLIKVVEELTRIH

Dmax: 98.6%
remaining activity at up to 25 µM: 1.39%
DC50: 0.017 µM
SMILES: O=C1CCC(N2Cc3cc(OC[C@H]4CCCCN4Cc4cnc5ccccc5c4)ccc3C2=O)C(=O)N1 (stereo partly drawn) [Compound I-150]

Dmax: 98.1%
remaining activity at up to 25 µM: 1.93%
DC50: 0.025 µM
SMILES: O=C1CCC(N2Cc3cc(OC[C@H]4CCCCN4Cc4ccccc4N4CCN(CC5CCOCC5)CC4)ccc3C2=O)C(=O)N1 (stereo partly drawn) [Compound I-108, 3-(1-oxo-5-(((R)-1-(2-(4-((tetrahydro-2H-pyran-4-yl)methyl)piperazin-1-yl)benzyl)piperidin-2-yl)methoxy)isoindolin-2-yl)piperidine-2,6-dione]

% degradation of WIZ (100-Amax): 26.5%
WIZ Amax: 73.5%
DC50: 0.36 µM
SMILES: CCN1C2CCC(C2)C1COc1ccc2c(c1)CN(C1CCC(=O)NC1=O)C2=O (single isomer, unassigned) [I-255 (Isomer 3), 3-(5-((endo-2-ethyl-2-azabicyclo[2.2.1]heptan-3-yl)methoxy)-1-oxoisoindolin-2-yl)piperidine-2,6-dione]

Dmax: 97.4%
remaining activity at up to 25 µM: 2.56%
DC50: 0.01 µM
SMILES: O=C1CCC(N2Cc3cc(OC[C@H]4CCCCN4Cc4ccccc4N4CCCCC4)ccc3C2=O)C(=O)N1 (stereo partly drawn) [Compound I-119]

Dmax: 67.5%
remaining activity at up to 25 µM: 32.5%
DC50: 0.00092 µM
SMILES: O=C1CCC(N2Cc3cc(OC[C@H]4CCCCN4Cc4ccc(C5CCN(CC6COC6)CC5)cc4)ccc3C2=O)C(=O)N1 (stereo partly drawn) [Compound I-203, 3-(5-(((R)-1-(4-(1-(oxetan-3-ylmethyl)piperidin-4-yl)benzyl)piperidin-2-yl)methoxy)-1-oxoisoindolin-2-yl)piperidine-2,6-dione]

More lines, now with the values behind:

SMILES: O=C1CCC(N2Cc3cc(OC[C@@H]4CCCCN4Cc4cnn(Cc5ccccc5)c4)ccc3C2=O)C(=O)N1 (stereo partly drawn) [Compound I-50ck]
Dmax: 83.2%
remaining activity at up to 25 µM: 16.8%
DC50: 0.766 µM

SMILES: Cc1nnc(-c2ccc(CN3CCCC[C@H]3COc3ccc4c(c3)CN(C3CCC(=O)NC3=O)C4=O)cc2)o1 (stereo partly drawn) [Compound I-50i]
Dmax: 28.8%
remaining activity at up to 25 µM: 71.2%
DC50: > 25 µM

SMILES: Cc1nn(-c2ccccc2)c(C)c1C(=O)N1CCCC[C@H]1COc1ccc2c(c1)CN(C1CCC(=O)NC1=O)C2=O (stereo partly drawn) [Compound I-72gs]
Dmax: 57.9%
remaining activity at up to 25 µM: 42.1%
DC50: 7.39 µM

SMILES: CCN1CCC(F)(F)CC1COc1ccc2c(c1)CN(C1CCC(=O)NC1=O)C2=O (single isomer, unassigned) [I-252 (Isomer 3), 3-(5-((1-ethyl-4,4-difluoropiperidin-2-yl)methoxy)-1-oxoisoindolin-2-yl)piperidine-2,6-dione]
% degradation of WIZ (100-Amax): 55.1%
WIZ Amax: 44.9%
DC50: 0.045 µM

SMILES: CCc1nc(C)c(CN2CCCC[C@@H]2COc2ccc3c(c2)CN(C2CCC(=O)NC2=O)C3=O)[nH]1 (stereo partly drawn) [Compound I-50dh]
Dmax: 66.9%
remaining activity at up to 25 µM: 33.1%
DC50: 6.53 µM

SMILES: O=C1CCC(N2Cc3cc(OC[C@H]4CCCCN4Cc4ccnc(N5CCOCC5)c4)ccc3C2=O)C(=O)N1 (stereo partly drawn) [Compound I-50dr]
Dmax: 85.5%
remaining activity at up to 25 µM: 14.5%
DC50: 0.097 µM

SMILES: CN(C)c1cccc(C(=O)N2CCCC[C@H]2COc2ccc3c(c2)CN(C2CCC(=O)NC2=O)C3=O)c1 (stereo partly drawn) [Compound I-72gg]
Dmax: 24%
remaining activity at up to 25 µM: 76%
DC50: > 25 µM

SMILES: O=C1CCC(N2Cc3cc(OC[C@@H]4CCCCN4Cc4ccccc4OCC(=O)N4CCCCC4)ccc3C2=O)C(=O)N1 (stereo partly drawn) [Compound I-50am]
Dmax: 40%
remaining activity at up to 25 µM: 60%
DC50: > 25 µM

SMILES: O=C1CCC(N2Cc3cc(OC[C@@H]4CCCCN4Cc4ccccc4OCCN4CCOCC4)ccc3C2=O)C(=O)N1 (stereo partly drawn) [Compound I-50ab]
Dmax: 50.8%
remaining activity at up to 25 µM: 49.2%
DC50: > 25 µM

SMILES: O=C1CCC(N2Cc3cc(OC[C@@H]4CCCCN4C(=O)c4cccc(OC(F)F)c4)ccc3C2=O)C(=O)N1 (stereo partly drawn) [Compound I-72hx]
Dmax: 5.1%
remaining activity at up to 25 µM: 94.9%
DC50: > 25 µM
